Drawing on article PMC6563716 (Helvetica Chimica Acta, 2019), this text covers IC50 for 3 compounds.

Molecules are shown by their SMILES.

This assay has as its target T1, human 15-lipoxygenase-1 (15-LOX-1) (Homo sapiens, UniProt P16050).
T1 sequence (P16050 2-662): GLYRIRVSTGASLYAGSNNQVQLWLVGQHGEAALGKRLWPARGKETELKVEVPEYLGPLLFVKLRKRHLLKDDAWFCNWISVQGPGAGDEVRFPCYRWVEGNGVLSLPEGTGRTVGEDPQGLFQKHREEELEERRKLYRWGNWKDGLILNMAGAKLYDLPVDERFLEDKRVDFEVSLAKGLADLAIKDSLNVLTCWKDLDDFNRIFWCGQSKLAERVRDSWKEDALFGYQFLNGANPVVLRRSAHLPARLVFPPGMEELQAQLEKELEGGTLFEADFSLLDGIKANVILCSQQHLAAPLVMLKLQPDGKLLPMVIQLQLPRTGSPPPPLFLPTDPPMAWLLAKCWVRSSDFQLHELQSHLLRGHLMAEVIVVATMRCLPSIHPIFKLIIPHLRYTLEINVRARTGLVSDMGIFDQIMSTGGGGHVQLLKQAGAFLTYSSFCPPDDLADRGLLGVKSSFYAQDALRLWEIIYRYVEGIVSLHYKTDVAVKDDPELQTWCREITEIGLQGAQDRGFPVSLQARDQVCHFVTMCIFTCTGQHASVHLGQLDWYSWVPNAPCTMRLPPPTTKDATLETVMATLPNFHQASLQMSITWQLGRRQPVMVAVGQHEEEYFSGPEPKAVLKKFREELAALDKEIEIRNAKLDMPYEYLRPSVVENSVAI
Kind of assay: UV absorption assay. In kind it is biochemical.

By IC50 is commonly meant the concentration that gives 50% inhibition. High values mean lower potency, low ones higher potency. Regarding `CC(C)CCCC(C)CC(=O)NN=Cc1cccs1` (racemic) [compound 2, 3,7‐Dimethyl‐N′‐(thiophen‐2‐ylmethylene)octanehydrazide], 59 ± 7 µM corresponded to half-maximal inhibition (IC50). `COc1cc(C=NNC(=O)CC(C)CCCC(C)C)ccc1O` (racemic) [compound 4, N ′‐[(4‐Hydroxy‐3‐methoxyphenyl)methylidene]‐3,7‐dimethyloctanehydrazide]: the IC50 turned out to be 42 ± 4 µM. As for `CC(C)CCCC(C)CC(=O)NN=Cc1cccnc1` (racemic) [compound 17, 3,7‐Dimethyl‐N′‐[(pyridin‐3‐yl)methylidene]octanehydrazide], inhibition was half-maximal at 16 ± 6 µM (IC50). This IC50 lies about 2.6-fold lower than the previous one.
